# US20020035061A1, “COMPOSITIONS AND METHODS FOR TREATING INFECTIONS USING CATIONIC PEPTIDES ALONE OR IN COMBINATION WITH ANTIBIOTICS” (priority 1996, published 2002)
# Key:
# [1] = system: inherently resistant microorganisms; test: microbe, parasite or virus in culture; assay type: cell-based
# [2] = system: microorganisms with acquired resistance; test: microbe, parasite or virus in culture; assay type: cell-based; settings: for Peptide MIC: A. calcoaceticus, in µg/mL
sequence,measurement,setting,value
KWKSFIKKLTSAAKKVVTTAKPLISS [MBI 26],MBI 26 MIC + Erythro.,[1]; A. calcoaceticus AC001,8 µg/mL
same,MBI 26 MIC Alone,[1]; A. calcoaceticus AC001,16 µg/mL
same,MBI 26 MIC + Vancomycin,[1]; E. casseliflavus 97056 VanC,1 µg/mL
same,MBI 26 MIC Alone,[1]; E. casseliflavus 97056 VanC,8 µg/mL
same,MBI 26 MIC + Vancomycin,[1]; E. casseliflavus 97057 VanC,0.5 µg/mL
same,MBI 26 MIC Alone,[1]; E. casseliflavus 97057 VanC,2 µg/mL
same,MBI 26 MIC + Vancomycin,[1]; E. casseliflavus 97058 VanC,0.25 µg/mL
same,MBI 26 MIC Alone,[1]; E. casseliflavus 97058 VanC,4 µg/mL
same,MBI 26 MIC + Vancomycin,[1]; E. casseliflavus 97059 VanC,0.5 µg/mL
same,MBI 26 MIC Alone,[1]; E. casseliflavus 97059 VanC,32 µg/mL
same,MBI 26 MIC + Vancomycin,[1]; E. casseliflavus 97060 VanC,0.25 µg/mL
same,MBI 26 MIC Alone,[1]; E. casseliflavus 97060 VanC,0.5 µg/mL
same,Peptide MIC + Mupirocin,[1]; E. coli,1 µg/mL
same,Peptide MIC Alone,"[1]; E. coli, Mupirocin section",2 µg/mL
same,MBI 26 MIC + Vancomycin,[1]; E. gallinarum 97044 VanC,0.5 µg/mL
same,MBI 26 MIC Alone,[1]; E. gallinarum 97044 VanC,8 µg/mL
same,MBI 26 MIC + Vancomycin,[1]; E. gallinarum 97046 VanC,4 µg/mL
same,MBI 26 MIC Alone,[1]; E. gallinarum 97046 VanC,2 µg/mL
same,MBI 26 MIC + Vancomycin,[1]; E. gallinarum 97047 VanC,8 µg/mL
same,MBI 26 MIC Alone,[1]; E. gallinarum 97047 VanC,64 µg/mL
same,MBI 26 MIC + Vancomycin,[1]; E. gallinarum 97048 VanC,2 µg/mL
same,MBI 26 MIC Alone,[1]; E. gallinarum 97048 VanC,2 µg/mL
same,MBI 26 MIC + Vancomycin,[1]; E. gallinarum 97049 VanC,16 µg/mL
same,MBI 26 MIC Alone,[1]; E. gallinarum 97049 VanC,64 µg/mL
same,MBI 26 MIC + Erythro.,[1]; K. pneumoniae KP001,8 µg/mL
same,MBI 26 MIC Alone,[1]; K. pneumoniae KP001,16 µg/mL
same,MBI 26 MIC + Erythro.,[1]; K. pneumoniae KP002,32 µg/mL
same,MBI 26 MIC Alone,[1]; K. pneumoniae KP002,64 µg/mL
same,MBI 26 MIC + Erythro.,[1]; P. aeruginosa PA041,32 µg/mL
same,MBI 26 MIC Alone,[1]; P. aeruginosa PA041,64 µg/mL
same,Peptide MIC Alone,"[1]; P. aeruginosa, Ceftriaxone section",128 µg/mL
same,Peptide MIC + Piperacillin,[1]; S. aureus MRSA,4 µg/mL
same,Peptide MIC Alone,"[1]; S. aureus MRSA, Piperacillin section",32 µg/mL
same,Peptide MIC + Ceftriaxone,[1]; S. maltophilia,2 µg/mL
same,Peptide MIC Alone,"[1]; S. maltophilia, Ceftriaxone section",8 µg/mL
same,FIC,"[1]; peptide + Amikacin, S. maltophilia",0.19
same,FIC,"[1]; peptide + Ceftriaxone, S. maltophilia",0.25
same,FIC,"[1]; peptide + Mupirocin, E. coli",0.50
same,FIC,"[1]; peptide + Piperacillin, S. aureus MRSA",0.13
same,Gentamicin MIC + Peptide,[2]; A. baumannii ABI001,4 µg/mL
same,Peptide MIC + Gentamicin,[2]; A. baumannii ABI001,4 µg/mL
same,Peptide MIC Alone,"[2]; A. baumannii ABI001, Gentamicin section",8 µg/mL
same,Gentamicin MIC + Peptide,[2]; A. baumannii ABI002,0.5 µg/mL
same,Peptide MIC + Gentamicin,[2]; A. baumannii ABI002,4 µg/mL
same,Peptide MIC Alone,"[2]; A. baumannii ABI002, Gentamicin section",8 µg/mL
same,Ceftriaxone MIC + Peptide,[2]; A. baumannii ABI005,0.5 µg/mL
same,Peptide MIC + Ceftriaxone,[2]; A. baumannii ABI005,1 µg/mL
same,Peptide MIC Alone,"[2]; A. baumannii ABI005, Ceftriaxone section",2 µg/mL
same,Ceftriaxone MIC + Peptide,[2]; A. baumannii ABI006,8 µg/mL
same,Peptide MIC + Ceftriaxone,[2]; A. baumannii ABI006,1 µg/mL
same,Peptide MIC Alone,"[2]; A. baumannii ABI006, Ceftriaxone section",2 µg/mL
same,Peptide MIC + Piperacillin,[2]; A. calcoaceticus 2,16 µg/mL
same,Piperacillin MIC + Peptide,[2]; A. calcoaceticus 2,4 µg/mL
same,Peptide MIC Alone,"[2]; A. calcoaceticus 2, Piperacillin section",32 µg/mL
same,Ciprofloxacin MIC + Peptide,[2]; A. calcoaceticus 5,0.25 µg/mL
same,Peptide MIC + Ciprofloxacin,[2]; A. calcoaceticus 5,16 µg/mL
same,Peptide MIC Alone,"[2]; A. calcoaceticus 5, Ciprofloxacin section",>32 µg/mL
same,Peptide MIC + Piperacillin,[2]; A. calcoaceticus 7,8 µg/mL
same,Piperacillin MIC + Peptide,[2]; A. calcoaceticus 7,4 µg/mL
same,Peptide MIC Alone,"[2]; A. calcoaceticus 7, Piperacillin section",>32 µg/mL
same,Peptide MIC,[2]; combination with Ceftazidime,32
same,Peptide MIC,[2]; combination with Ciprofloxacin,4
same,Ceftriaxone MIC + Peptide,[2]; B. cepacia BC003,8 µg/mL
same,Peptide MIC + Ceftriaxone,[2]; B. cepacia BC003,0.125 µg/mL
same,Peptide MIC Alone,"[2]; B. cepacia BC003, Ceftriaxone section",>128 µg/mL
same,Peptide MIC + Piperacillin,[2]; E. cloacae 13,8 µg/mL
same,Piperacillin MIC + Peptide,[2]; E. cloacae 13,4 µg/mL
same,Peptide MIC Alone,"[2]; E. cloacae 13, Piperacillin section",>32 µg/mL
same,Ciprofloxacin MIC + Peptide,[2]; E. cloacae 16,0.25 µg/mL
same,Peptide MIC + Ciprofloxacin,[2]; E. cloacae 16,16 µg/mL
same,Peptide MIC Alone,"[2]; E. cloacae 16, Ciprofloxacin section",>32 µg/mL
same,Ciprofloxacin MIC + Peptide,[2]; E. cloacae 17,0.25 µg/mL
same,Peptide MIC + Ciprofloxacin,[2]; E. cloacae 17,16 µg/mL
same,Peptide MIC Alone,"[2]; E. cloacae 17, Ciprofloxacin section",>32 µg/mL
same,Peptide MIC + Piperacillin,[2]; E. cloacae 19,16 µg/mL
same,Piperacillin MIC + Peptide,[2]; E. cloacae 19,4 µg/mL
same,Peptide MIC Alone,"[2]; E. cloacae 19, Piperacillin section",>32 µg/mL
same,Ceftriaxone MIC + Peptide,[2]; E. cloacae ECL015,4 µg/mL
same,Peptide MIC + Ceftriaxone,[2]; E. cloacae ECL015,4 µg/mL
same,Peptide MIC Alone,"[2]; E. cloacae ECL015, Ceftriaxone section",32 µg/mL
same,Peptide MIC + Piperacillin,[2]; H. influenzae 1,32 µg/mL
same,Piperacillin MIC + Peptide,[2]; H. influenzae 1,4 µg/mL
same,Peptide MIC Alone,"[2]; H. influenzae 1, Piperacillin section",>128 µg/mL
same,Peptide MIC + Piperacillin,[2]; H. influenzae 2,16 µg/mL
same,Piperacillin MIC + Peptide,[2]; H. influenzae 2,16 µg/mL
same,Peptide MIC Alone,"[2]; H. influenzae 2, Piperacillin section",>128 µg/mL
same,Peptide MIC + Piperacillin,[2]; P. aeruginosa 7,32 µg/mL
same,Piperacillin MIC + Peptide,[2]; P. aeruginosa 7,32 µg/mL
same,Peptide MIC Alone,"[2]; P. aeruginosa 7, Piperacillin section",>128 µg/mL
same,Peptide MIC + Piperacillin,[2]; P. aeruginosa 23,32 µg/mL
same,Piperacillin MIC + Peptide,[2]; P. aeruginosa 23,4 µg/mL
same,Peptide MIC Alone,"[2]; P. aeruginosa 23, Piperacillin section",>64 µg/mL
same,Peptide MIC + Piperacillin,[2]; P. aeruginosa 26,32 µg/mL
same,Piperacillin MIC + Peptide,[2]; P. aeruginosa 26,8 µg/mL
same,Peptide MIC Alone,"[2]; P. aeruginosa 26, Piperacillin section",>32 µg/mL
same,Ciprofloxacin MIC + Peptide,[2]; P. aeruginosa 30,0.25 µg/mL
same,Peptide MIC + Ciprofloxacin,[2]; P. aeruginosa 30,2 µg/mL
same,Peptide MIC Alone,"[2]; P. aeruginosa 30, Ciprofloxacin section",>32 µg/mL
same,Ciprofloxacin MIC + Peptide,[2]; P. aeruginosa 31,0.25 µg/mL
same,Peptide MIC + Ciprofloxacin,[2]; P. aeruginosa 31,16 µg/mL
same,Peptide MIC Alone,"[2]; P. aeruginosa 31, Ciprofloxacin section",>32 µg/mL
same,Gentamicin MIC + Peptide,[2]; P. aeruginosa PA023,4 µg/mL
same,Peptide MIC + Gentamicin,[2]; P. aeruginosa PA023,64 µg/mL
same,Peptide MIC Alone,"[2]; P. aeruginosa PA023, Gentamicin section",>128 µg/mL
same,Peptide MIC + Tobramycin,[2]; P. aeruginosa PA031,16 µg/mL
same,Tobramycin MIC + Peptide,[2]; P. aeruginosa PA031,4 µg/mL
same,Peptide MIC Alone,"[2]; P. aeruginosa PA031, Tobramycin section",32 µg/mL
same,Gentamicin MIC + Peptide,[2]; P. aeruginosa PA041,4 µg/mL
same,Peptide MIC + Gentamicin,[2]; P. aeruginosa PA041,16 µg/mL
same,Ciprofloxacin MIC + Peptide,[2]; P. aeruginosa PA41,1 µg/mL
same,Peptide MIC + Ciprofloxacin,[2]; P. aeruginosa PA41,32 µg/mL
same,Peptide MIC Alone,"[2]; P. aeruginosa PA41, Ciprofloxacin section",128 µg/mL
same,Peptide MIC Alone,"[2]; P. aeruginosa PA041, Gentamicin section",64 µg/mL
same,Ciprofloxacin MIC + Peptide,[2]; P. aeruginosa PA77,0.125 µg/mL
same,Peptide MIC + Ciprofloxacin,[2]; P. aeruginosa PA77,64 µg/mL
